Test results reported in patent US6291677A, “Compounds having activity as inhibitors of cytochrome P450RAI” (Allergan Sales, Inc., priority 2000, dated 2001).

Assays:
skin of hairless mice = test: topical skin irritation test in hairless mice; assay type: in vivo, female hairless mice (Crl:SKH1-hrBR); conditions: once daily days 1 through 5, mean±SD
Text: Mice were housed individually throughout the dosing period.
Doses are disclosed as nmol/25 g.
The grading scale used is as follows:
Values can range from 0-9.
Values can range from 0-8.

RARγ = test: chimeric receptor transactivation assay, RARγ; assay type: cell-based; conditions: unit assumed
Text: (§1) Assays described below measure the ability of a compound to bind to, and/or activate various retinoid receptor subtypes. When in these assays a compound binds to a given receptor subtype and activates the transcription of a reporter gene through that subtype, then the compound is considered an agonist of that receptor subtype. […] In the below described assays the ability of the compounds to bind to RARα, RARβ, RARγ,RXRα, RXRβ and RXRγ receptors, and the ability or inability of the compounds to activate transcription of a reporter gene through these receptor subtypes can be tested.
(§2) The results obtained in this assay are expressed in EC50 numbers, as they are also in the chimeric receptor transactivation assay. The results of ligand binding assay are expressed in Kd numbers.

RARβ = test: chimeric receptor transactivation assay, RARβ; assay type: cell-based; conditions: unit assumed
Text: as §1, §2

RARα = test: chimeric receptor transactivation assay, RARα; assay type: cell-based; conditions: unit assumed
Text: as §1, §2

P450RAI-1 = biological target: T1, P450RAI-1 (Homo sapiens, UniProt O43174); test: cell-based; conditions: intact HeLa, P450RAI-1 stably transfected, [3H]-RA, 3 hours at 37° C; read-out: P450RAI INHIBITION DATA INTACT HELA IC50
T1 sequence (O43174 1-497): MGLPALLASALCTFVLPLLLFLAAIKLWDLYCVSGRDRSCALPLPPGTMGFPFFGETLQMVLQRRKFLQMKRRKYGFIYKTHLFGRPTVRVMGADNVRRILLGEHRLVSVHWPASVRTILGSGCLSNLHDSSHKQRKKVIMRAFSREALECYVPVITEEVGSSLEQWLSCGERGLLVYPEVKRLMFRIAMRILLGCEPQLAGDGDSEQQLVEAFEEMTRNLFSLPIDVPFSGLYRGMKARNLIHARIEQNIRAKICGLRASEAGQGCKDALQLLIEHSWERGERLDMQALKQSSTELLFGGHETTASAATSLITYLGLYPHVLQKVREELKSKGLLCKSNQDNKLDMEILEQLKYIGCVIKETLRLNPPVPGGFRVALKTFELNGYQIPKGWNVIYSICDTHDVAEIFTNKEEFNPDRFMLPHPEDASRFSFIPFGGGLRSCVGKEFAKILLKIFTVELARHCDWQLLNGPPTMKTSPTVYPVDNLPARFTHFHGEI
Procedure: FIG. 1 is a schematic representation of the P450RAI cell based assay utilized to evaluate the ability of the compounds of the invention to inhibit the Cytochrome P450RAI enzyme.
P450RAI-1 Cell-Based Inhibitor Assay:
P450RAI-1 stably transfected HeLa cells are maintained in […] tissue culture dishes in Modified Eagle's Medium (MEM) containing 10% Fetal Bovine Serum (FBS) and 100 μg/ml hygromycin. Exponentially growing cells are harvested by incubating in trypsin. Cells are then washed with 1× Phosphate Buffered Saline (PBS) and plated in a 48-well plate at 5×10^5 cells in 0.2 ml MEM medium containing 10% FBS and 0.05 μCi [^3 H]-RA in the presence or absence of increasing concentrations of the test compounds. The compounds are diluted in 100% DMSO and then added in triplicate wells at either 10, 1 or 0.1 μM final concentration. As a positive control for RA metabolism inhibition, cells are also incubated with ketoconazole at 100, 10 and 1 μM. Cell are incubated for 3 hours at 37° C. […] The water soluble radioactivity is quantified using a β-scintillationcounter. IC50 values represent the concentration of inhibitor required to inhibit all-trans-RA metabolism by 50 percent and are derived manually from log-transformed data.

CC1(C)CC2(CC2)Oc2c(C3CC3)cc(C#Cc3ccc(CC(=O)O)c(F)c3)cc21 [Compound 50, 4-[(8-Cyclopropyl-3,4-dihydro-4,4-dimethylspiro[2H-1-benzopyran-2,1'-cyclopropane]-6-yl)ethynyl]-2-fluoro-benzeneacetic acid]
Cutaneous Toxicity Score (Blackjack Score) (skin of hairless mice; 100 nmole): 1 ± 0 | Cutaneous Toxicity Score (Blackjack Score) (skin of hairless mice; 300 nmole): 3 ± 2 | Cutaneous Toxicity Score (Blackjack Score) (skin of hairless mice; 1000 nmole): 8 ± 2

Cc1cc(C#Cc2ccc(C(=O)O)cc2)ccc1C1(OCc2ccccc2)CC1 [Compound 81, 4-[4-(1-Benzyloxycyclopropyl)-3-methyl-phenylethynyl]-benzoic acid]
(EFFICACY) RAR γ (RARγ): 67% | (EFFICACY) RAR β (RARβ): 80%

Cc1cc(C#Cc2ccc(C(=O)O)cc2)ccc1C1(OC(C)C)CC1 [Compound 85, 4-[4-(1-Isopropoxycyclopropyl)-3-methyl-phenylethynyl]-benzoic acid]
(EFFICACY) RAR α (RARα): 60% | (EFFICACY) RAR γ (RARγ): 65% | (EFFICACY) RAR β (RARβ): 77%

CC1(C)CCC(=O)c2ccc(C#Cc3ccc(CC(=O)O)c(F)c3)cc21 [Compound 15, [2-Fluoro-4-(8,8-dimethyl-5-oxo-5,6,7,8-tetrahydro-naphthalene-2-yl-ethynyl)phenyl]-acetic acid]
Cutaneous Toxicity Score (Blackjack Score) (skin of hairless mice; 100 nmole): 1 ± 1 | Cutaneous Toxicity Score (Blackjack Score) (skin of hairless mice; 1000 nmole): 5 ± 2

CC(C)OC1(c2ccc(C#Cc3ccc(C(=O)O)cc3)cc2)CC1 [Compound 73, 4-[4-(1-Isopropoxycyclopropyl)-phenylethynyl]-benzoic acid]
(EFFICACY) RAR γ (RARγ): 24% | (EFFICACY) RAR β (RARβ): 39%

Cc1cc(C#Cc2ccc(CC(=O)O)cc2)ccc1Cn1ccnc1 [Compound 121, [4-(4-Imidazol-1-yl-methyl-3-methyl-phenylethynyl)-phenyl]-acetic acid]
IC50 (P450RAI-1): 180 nM

CN(C1CC1)C1CCC(C)(C)c2cc(C#Cc3ccc(C(=O)O)c(F)c3)ccc21 (stereo not drawn) [Compound 13, 4-[5-(Cyclopropyl-methyl-amino)-8,8-dimethyl-5,6,7,8-tetrahydro-naphthalene-2-yl-ethynyl]-2-fluoro benzoic acid]
(EFFICACY) RAR γ (RARγ): 9% | (EFFICACY) RAR β (RARβ): 6.6%

CCCNC1(c2ccc(C#Cc3ccc(C(=O)O)cc3)cc2)CC1 [Compound 108, 4-[4-(1-Propylamino-cyclopropyl)-phenylethynyl]-benzoic acid]
(EFFICACY) RAR α (RARα): 15% | (EFFICACY) RAR γ (RARγ): 10% | (EFFICACY) RAR β (RARβ): 36%

CC1(C)CN(C2CC2)Cc2ccc(C#Cc3ccc(CC(=O)O)c(F)c3)cc21 [Compound 22, [4-(2-Cyclopropyl-4,4-dimethyl-1,2,34-tetrahydro-isoquinolin-6-yl-ethynyl)-2-fluoro-phenyl]-acetic acid]
Cutaneous Toxicity Score (Blackjack Score) (skin of hairless mice; 100 nmole): 0 ± 0 | Cutaneous Toxicity Score (Blackjack Score) (skin of hairless mice; 300 nmole): 0 ± 0 | Cutaneous Toxicity Score (Blackjack Score) (skin of hairless mice; 1000 nmole): 1 ± 1

CC1(C)CC(C)(C)c2cc(C#Cc3ccc(CC(=O)O)c(F)c3)ccc2O1 [Compound 32, [2-Fluoro-4-(2,2,4,4-tetramethyl-chroman-6-yl-ethynyl)phenyl]acetic acid]
IC50 (P450RAI-1): 130 nM

CC1(C)CC2(CC2)Oc2ccc(C#Cc3ccc(C(=O)O)c(F)c3)cc21 [Compound 44, 2-Fluoro-benzoic acid 4-[(3,4-dihydro-4,4-dimethylspiro[2H-1-benzopyran-2,1'-cyclopropane]-6-yl)ethynyl]-]
(EFFICACY) RAR α (RARα): 138% | (EFFICACY) RAR γ (RARγ): 116% | (EFFICACY) RAR β (RARβ): 100%

CC1(C)CCC(=O)c2ccc(C#Cc3ccc(C(=O)O)c(F)c3)cc21 [Compound 10, 2-Fluoro-4-(8,8-dimethyl-5-oxo-5,6,7,8-tetrahydro-naphthalen-2yl-ethynyl)-benzoic acid]
(EFFICACY) RAR α (RARα): 146% | (EFFICACY) RAR γ (RARγ): 94% | (EFFICACY) RAR β (RARβ): 86%

COC1(c2ccc(C#Cc3ccc(C(=O)O)cc3)cc2)CC1 [Compound 69, 4-[4-(1-Methoxycyclopropyl)-phenylethynyl]-benzoic acid]
(EFFICACY) RAR α (RARα): 10% | (EFFICACY) RAR γ (RARγ): 31% | (EFFICACY) RAR β (RARβ): 50%

CC1(C)CC2(CC2)Oc2ccc(C#Cc3ccc(C(=O)O)cc3)cc21 [Compound 40, Benzoic acid, 4-[(3,4-dihydro-4,4-dimethylspiro[2H-1-benzopyran-2,1'-cyclopropane]-6-yl)ethynyl]-]
(EFFICACY) RAR α (RARα): 207% | (EFFICACY) RAR γ (RARγ): 140% | (EFFICACY) RAR β (RARβ): 126%

CC1(C)CC2(CC2)Oc2c(C3CC3)cc(C#Cc3ccc(CC(=O)O)cc3)cc21 [Compound 48, Benzeneacetic acid, 4-[(8-cyclopropyl-3,4-dihydro-4,4-dimethylspiro[2H-1-benzopyran-2,1'-cyclopropane]-6-yl)ethynyl]-]
Cutaneous Toxicity Score (Blackjack Score) (skin of hairless mice; 100 nmole): 1 ± 1 | Cutaneous Toxicity Score (Blackjack Score) (skin of hairless mice; 300 nmole): 3 ± 1 | Cutaneous Toxicity Score (Blackjack Score) (skin of hairless mice; 1000 nmole): 7 ± 2

CC1(C)CC(C)(C)c2cc(C#Cc3ccc(CC(=O)O)cc3)cc(C3CC3)c2O1 [Compound 36, [4-(8-Cyclopropyl-2,2,4,4-tetramethyl-chroman-6-yl-ethynyl)phenyl]acetic acid]
Cutaneous Toxicity Score (Blackjack Score) (skin of hairless mice; 100 nmole): 1 ± 1 | Cutaneous Toxicity Score (Blackjack Score) (skin of hairless mice; 1000 nmole): 11 ± 0

CCCN(CCC)C1(c2ccc(C#Cc3ccc(C(=O)O)cc3)cc2)CC1 [Compound 110, 4-[4-(1-Dipropylamino-cyclopropyl)-phenylethynyl]-benzoic acid]
(EFFICACY) RAR γ (RARγ): 42% | (EFFICACY) RAR β (RARβ): 44%

CC1(C)CCC(=O)c2ccc(C#Cc3ccc(CC(=O)O)cc3)cc21 [Compound 5, 4-[(8,8-Dimethyl-5-oxo-5,6,7,8-tetrahydro-naphthalene-2-yl-ethynyl)-phenyl]-acetic acid]
Cutaneous Toxicity Score (Blackjack Score) (skin of hairless mice; 100 nmole): 0 | Cutaneous Toxicity Score (Blackjack Score) (skin of hairless mice; 1000 nmole): 6 ± 3 | (EFFICACY) RAR β (RARβ): 36%

O=C(O)c1ccc(C#Cc2ccc(C3(NCc4ccccc4)CC3)cc2)cc1 [Compound 112]
(EFFICACY) RAR β (RARβ): 37%

CN(C1CC1)C1CCC(C)(C)c2cc(C#Cc3ccc(CC(=O)O)c(F)c3)ccc21 (stereo not drawn) [Compound 18, [4-(5-(Cyclopropyl-methyl-amino)-8,8-dimethyl-5,6,7,8-tetrahydro-naphthalene-2-yl-ethynyl)-2-fluoro-phenyl]-acetic acid]
Cutaneous Toxicity Score (Blackjack Score) (skin of hairless mice; 100 nmole): 0 ± 0 | Cutaneous Toxicity Score (Blackjack Score) (skin of hairless mice; 300 nmole): 1 ± 1 | Cutaneous Toxicity Score (Blackjack Score) (skin of hairless mice; 1000 nmole): 10 ± 2

CCc1cc(C#Cc2ccc(C(=O)O)cc2)ccc1C1(OCc2ccccc2)CC1 [Compound 93, 4-[4-(1-Benzyloxycyclopropy)-3-ethyl-phenylethynyl]-benzoic acid]
(EFFICACY) RAR α (RARα): 114% | (EFFICACY) RAR γ (RARγ): 55% | (EFFICACY) RAR β (RARβ): 39%

CC1(C)CC2(CC2)Oc2c(C3CC3)cc(C(=O)Oc3ccc(CC(=O)O)cc3)cc21 [Compound 58]
Cutaneous Toxicity Score (Blackjack Score) (skin of hairless mice; 100 nmole): 0 ± 0 | Cutaneous Toxicity Score (Blackjack Score) (skin of hairless mice; 300 nmole): 0 ± 0 | Cutaneous Toxicity Score (Blackjack Score) (skin of hairless mice; 1000 nmole): 0 ± 0

CN(C1CC1)C1CCC(C)(C)c2cc(C#Cc3ccc(C(=O)O)cc3)ccc21 (stereo not drawn) [Compound 3, 4-[(5-Cyclopropyl-methyl-amino)-8,8-dimethyl-5,6,7,8-tetrahydro-naphthalene-2yl-ethynyl]-benzoic acid]
(EFFICACY) RAR α (RARα): 28% | (EFFICACY) RAR γ (RARγ): 52% | (EFFICACY) RAR β (RARβ): 54%

Cc1cc(C#Cc2ccc(C(=O)O)cc2)ccc1C1(OCC(C)(C)C)CC1 [Compound 89, 4-[4-[1-(2,2-Dimethylpropyloxy)-cyclopropyl]-3-methyl-phenylethynyl]-benzoic acid]
(EFFICACY) RAR α (RARα): 20% | (EFFICACY) RAR γ (RARγ): 46% | (EFFICACY) RAR β (RARβ): 50%

CC1(C)CCC(n2ccnc2)c2ccc(C#Cc3ccc(CC(=O)O)cc3)cc21 (stereo not drawn) [Compound 137, [4-(5-Imidazol-1-yl-8,8-dimethyl-5,6,7,8-tetrahydro-naphthalen-2-yl-ethynyl)-phenyl]-acetic acid]
Cutaneous Toxicity Score (Blackjack Score) (skin of hairless mice; 100 nmole): 1 ± 1 | Cutaneous Toxicity Score (Blackjack Score) (skin of hairless mice; 300 nmole): 1 ± 1 | Cutaneous Toxicity Score (Blackjack Score) (skin of hairless mice; 1000 nmole): 5 ± 2
